Measured values as given in ChEMBL document CHEMBL5058643, “Data for DCP probe BI-2081” (2022).

Key:
Conditions in all cases: Compound concentration 10.0 uM
[1] = target: T1, 5-hydroxytryptamine receptor 1A (Homo sapiens) (UniProt P08908)
T1 sequence (whole entry): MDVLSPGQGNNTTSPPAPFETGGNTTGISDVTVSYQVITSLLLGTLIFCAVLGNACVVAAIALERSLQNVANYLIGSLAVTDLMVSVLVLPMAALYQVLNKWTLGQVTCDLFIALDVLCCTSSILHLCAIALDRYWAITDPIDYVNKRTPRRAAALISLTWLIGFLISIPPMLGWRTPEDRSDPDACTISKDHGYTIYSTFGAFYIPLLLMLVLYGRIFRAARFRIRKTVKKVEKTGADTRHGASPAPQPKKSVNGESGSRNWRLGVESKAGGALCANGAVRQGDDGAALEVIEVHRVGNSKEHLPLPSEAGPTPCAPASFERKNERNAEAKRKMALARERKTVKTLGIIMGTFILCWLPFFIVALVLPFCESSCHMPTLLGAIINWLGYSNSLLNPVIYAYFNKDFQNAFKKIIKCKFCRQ

[2] = target: 5-hydroxytryptamine receptor 1B (Homo sapiens) (UniProt P28222)
Chain of 5-hydroxytryptamine receptor 1B (Homo sapiens) (P28222 whole entry): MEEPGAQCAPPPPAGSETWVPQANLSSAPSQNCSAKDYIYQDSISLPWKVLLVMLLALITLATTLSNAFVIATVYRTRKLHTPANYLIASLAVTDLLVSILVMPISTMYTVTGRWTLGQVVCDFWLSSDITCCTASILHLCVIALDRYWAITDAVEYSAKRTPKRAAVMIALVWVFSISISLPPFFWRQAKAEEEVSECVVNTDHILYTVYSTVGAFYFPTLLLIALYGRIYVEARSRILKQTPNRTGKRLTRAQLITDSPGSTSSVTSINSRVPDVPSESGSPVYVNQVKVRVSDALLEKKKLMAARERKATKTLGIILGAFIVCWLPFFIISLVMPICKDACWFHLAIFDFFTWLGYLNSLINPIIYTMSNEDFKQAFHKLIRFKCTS

[3] = target: 5-hydroxytryptamine receptor 2A (Homo sapiens) (UniProt P28223)
Chain of 5-hydroxytryptamine receptor 2A (Homo sapiens) (P28223 whole entry): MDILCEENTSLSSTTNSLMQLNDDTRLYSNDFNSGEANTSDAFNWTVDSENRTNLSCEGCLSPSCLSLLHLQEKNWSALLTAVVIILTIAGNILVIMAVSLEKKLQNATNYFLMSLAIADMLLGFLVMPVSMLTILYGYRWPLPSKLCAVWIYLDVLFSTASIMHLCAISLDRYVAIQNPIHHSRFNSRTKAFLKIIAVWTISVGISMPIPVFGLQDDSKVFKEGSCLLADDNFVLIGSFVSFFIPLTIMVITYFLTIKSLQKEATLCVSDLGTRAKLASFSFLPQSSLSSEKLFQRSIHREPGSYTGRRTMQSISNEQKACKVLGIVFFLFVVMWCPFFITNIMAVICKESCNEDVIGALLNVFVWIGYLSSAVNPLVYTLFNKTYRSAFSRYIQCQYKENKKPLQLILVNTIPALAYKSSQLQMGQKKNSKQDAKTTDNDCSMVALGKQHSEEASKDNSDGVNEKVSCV

[4] = target: 5-hydroxytryptamine receptor 5A (Homo sapiens) (UniProt P47898)
Chain of 5-hydroxytryptamine receptor 5A (Homo sapiens) (P47898 whole entry): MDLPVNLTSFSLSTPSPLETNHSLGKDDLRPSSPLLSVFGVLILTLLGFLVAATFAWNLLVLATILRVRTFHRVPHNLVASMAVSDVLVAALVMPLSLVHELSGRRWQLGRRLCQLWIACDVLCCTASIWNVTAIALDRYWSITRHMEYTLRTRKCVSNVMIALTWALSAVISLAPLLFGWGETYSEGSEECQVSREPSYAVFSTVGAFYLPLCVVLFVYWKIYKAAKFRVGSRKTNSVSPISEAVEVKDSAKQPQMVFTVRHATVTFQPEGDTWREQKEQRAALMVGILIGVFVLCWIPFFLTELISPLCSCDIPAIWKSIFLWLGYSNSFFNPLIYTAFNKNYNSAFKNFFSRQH

[5] = target: D(3) dopamine receptor (Homo sapiens) (UniProt P35462)
Chain of D(3) dopamine receptor (Homo sapiens) (P35462 whole entry): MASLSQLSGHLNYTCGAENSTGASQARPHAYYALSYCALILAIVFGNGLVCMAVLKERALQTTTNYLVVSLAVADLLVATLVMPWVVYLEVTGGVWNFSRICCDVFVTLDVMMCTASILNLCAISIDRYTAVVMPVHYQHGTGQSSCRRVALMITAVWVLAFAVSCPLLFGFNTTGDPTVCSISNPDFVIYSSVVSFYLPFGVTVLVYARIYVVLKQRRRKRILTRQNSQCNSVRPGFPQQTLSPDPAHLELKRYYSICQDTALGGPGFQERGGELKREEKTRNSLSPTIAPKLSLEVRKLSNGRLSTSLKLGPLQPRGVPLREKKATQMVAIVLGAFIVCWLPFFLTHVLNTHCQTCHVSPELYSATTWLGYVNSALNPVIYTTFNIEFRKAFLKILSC

[6] = target: D(1B) dopamine receptor (Homo sapiens) (UniProt P21918)
Chain of D(1B) dopamine receptor (Homo sapiens) (P21918 whole entry): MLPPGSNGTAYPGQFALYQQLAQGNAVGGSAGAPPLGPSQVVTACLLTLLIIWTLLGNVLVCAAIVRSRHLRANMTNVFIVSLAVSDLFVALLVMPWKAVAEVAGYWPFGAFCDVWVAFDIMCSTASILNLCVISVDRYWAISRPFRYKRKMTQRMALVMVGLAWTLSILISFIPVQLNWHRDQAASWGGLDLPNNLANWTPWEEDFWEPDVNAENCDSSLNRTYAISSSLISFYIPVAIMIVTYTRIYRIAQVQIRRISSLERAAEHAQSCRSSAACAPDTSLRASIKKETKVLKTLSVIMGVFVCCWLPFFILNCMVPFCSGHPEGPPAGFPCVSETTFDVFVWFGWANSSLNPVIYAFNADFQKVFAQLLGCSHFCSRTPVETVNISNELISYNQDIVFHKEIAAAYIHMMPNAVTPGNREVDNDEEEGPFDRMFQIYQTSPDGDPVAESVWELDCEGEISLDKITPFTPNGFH

[7] = target: Sodium-dependent serotonin transporter (Homo sapiens) (UniProt P31645)
Chain of Sodium-dependent serotonin transporter (Homo sapiens) (P31645 whole entry, looked up): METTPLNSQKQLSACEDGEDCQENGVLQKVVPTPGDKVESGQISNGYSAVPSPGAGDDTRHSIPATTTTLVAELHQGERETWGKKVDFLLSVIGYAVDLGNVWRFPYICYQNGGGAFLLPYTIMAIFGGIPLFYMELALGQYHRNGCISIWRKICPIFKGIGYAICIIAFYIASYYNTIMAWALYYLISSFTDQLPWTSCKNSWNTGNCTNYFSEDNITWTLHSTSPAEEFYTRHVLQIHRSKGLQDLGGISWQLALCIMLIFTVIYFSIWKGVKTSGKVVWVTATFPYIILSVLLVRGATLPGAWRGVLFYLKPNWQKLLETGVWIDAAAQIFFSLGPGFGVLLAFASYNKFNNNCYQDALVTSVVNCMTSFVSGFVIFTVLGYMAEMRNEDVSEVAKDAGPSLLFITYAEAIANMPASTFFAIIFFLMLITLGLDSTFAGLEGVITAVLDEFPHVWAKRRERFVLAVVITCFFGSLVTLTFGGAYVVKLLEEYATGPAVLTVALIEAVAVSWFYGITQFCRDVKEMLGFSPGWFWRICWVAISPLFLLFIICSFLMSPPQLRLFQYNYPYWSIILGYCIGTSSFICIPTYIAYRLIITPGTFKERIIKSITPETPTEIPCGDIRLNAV

[8] = target: Sodium-dependent noradrenaline transporter (Homo sapiens) (UniProt P23975)
Chain of Sodium-dependent noradrenaline transporter (Homo sapiens) (P23975 whole entry): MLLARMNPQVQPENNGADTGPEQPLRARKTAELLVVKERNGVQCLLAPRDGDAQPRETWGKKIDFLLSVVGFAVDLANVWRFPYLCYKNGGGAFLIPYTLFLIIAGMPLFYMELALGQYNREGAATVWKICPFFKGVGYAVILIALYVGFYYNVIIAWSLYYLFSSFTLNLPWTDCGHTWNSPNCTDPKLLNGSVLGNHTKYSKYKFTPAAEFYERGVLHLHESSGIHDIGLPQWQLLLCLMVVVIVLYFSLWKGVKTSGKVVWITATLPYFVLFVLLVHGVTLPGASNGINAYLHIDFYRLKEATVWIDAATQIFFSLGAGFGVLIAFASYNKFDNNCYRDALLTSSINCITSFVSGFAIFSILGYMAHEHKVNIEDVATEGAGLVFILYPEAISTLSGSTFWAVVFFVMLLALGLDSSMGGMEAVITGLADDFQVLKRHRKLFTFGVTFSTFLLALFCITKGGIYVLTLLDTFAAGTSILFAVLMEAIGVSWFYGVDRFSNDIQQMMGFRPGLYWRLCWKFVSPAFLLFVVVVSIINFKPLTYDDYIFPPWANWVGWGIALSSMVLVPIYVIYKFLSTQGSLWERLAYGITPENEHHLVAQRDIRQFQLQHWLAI

[9] = target: Sodium-dependent dopamine transporter (Homo sapiens) (UniProt Q01959)
Chain of Sodium-dependent dopamine transporter (Homo sapiens) (Q01959 whole entry): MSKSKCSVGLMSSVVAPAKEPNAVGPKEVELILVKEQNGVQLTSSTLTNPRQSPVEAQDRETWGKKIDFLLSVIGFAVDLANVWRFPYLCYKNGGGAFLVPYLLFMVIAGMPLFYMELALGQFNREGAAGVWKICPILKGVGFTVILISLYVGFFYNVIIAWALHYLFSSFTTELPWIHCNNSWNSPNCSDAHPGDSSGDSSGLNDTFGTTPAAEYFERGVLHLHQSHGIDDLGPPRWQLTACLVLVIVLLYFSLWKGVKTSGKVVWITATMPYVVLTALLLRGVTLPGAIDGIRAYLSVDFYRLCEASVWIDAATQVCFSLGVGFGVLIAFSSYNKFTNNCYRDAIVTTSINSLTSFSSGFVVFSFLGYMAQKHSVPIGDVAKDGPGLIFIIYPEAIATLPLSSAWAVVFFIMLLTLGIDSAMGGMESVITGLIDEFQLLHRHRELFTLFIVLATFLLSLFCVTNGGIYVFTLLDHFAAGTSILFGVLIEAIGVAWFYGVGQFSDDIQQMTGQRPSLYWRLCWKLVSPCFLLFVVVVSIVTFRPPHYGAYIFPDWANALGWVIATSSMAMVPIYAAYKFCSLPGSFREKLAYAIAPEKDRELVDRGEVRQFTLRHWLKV

[10] = target: Delta-type opioid receptor (Homo sapiens) (UniProt P41143)
Chain of Delta-type opioid receptor (Homo sapiens) (P41143 whole entry): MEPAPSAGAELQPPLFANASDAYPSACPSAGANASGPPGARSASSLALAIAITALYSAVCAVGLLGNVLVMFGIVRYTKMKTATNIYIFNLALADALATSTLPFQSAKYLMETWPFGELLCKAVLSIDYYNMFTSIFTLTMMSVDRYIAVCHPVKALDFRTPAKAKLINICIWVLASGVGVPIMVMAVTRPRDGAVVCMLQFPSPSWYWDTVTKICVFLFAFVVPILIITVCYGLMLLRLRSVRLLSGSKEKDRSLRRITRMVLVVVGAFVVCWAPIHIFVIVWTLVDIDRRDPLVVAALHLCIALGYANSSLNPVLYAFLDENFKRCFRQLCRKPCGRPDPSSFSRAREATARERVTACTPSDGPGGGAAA

[11] = target: Histamine H2 receptor (Homo sapiens) (UniProt P25021)
Chain of Histamine H2 receptor (Homo sapiens) (P25021 whole entry): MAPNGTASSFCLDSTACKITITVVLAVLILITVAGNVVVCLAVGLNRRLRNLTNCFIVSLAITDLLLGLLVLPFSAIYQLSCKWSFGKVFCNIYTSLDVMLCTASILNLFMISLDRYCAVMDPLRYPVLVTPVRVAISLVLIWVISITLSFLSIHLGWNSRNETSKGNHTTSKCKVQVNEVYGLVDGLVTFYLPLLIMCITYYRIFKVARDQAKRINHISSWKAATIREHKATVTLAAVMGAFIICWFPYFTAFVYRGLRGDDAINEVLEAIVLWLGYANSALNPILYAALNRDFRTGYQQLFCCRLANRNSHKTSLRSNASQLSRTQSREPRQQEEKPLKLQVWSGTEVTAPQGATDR

[12] = target: T2, Alpha-2B adrenergic receptor (Homo sapiens) (UniProt P18089)
T2 sequence (whole entry): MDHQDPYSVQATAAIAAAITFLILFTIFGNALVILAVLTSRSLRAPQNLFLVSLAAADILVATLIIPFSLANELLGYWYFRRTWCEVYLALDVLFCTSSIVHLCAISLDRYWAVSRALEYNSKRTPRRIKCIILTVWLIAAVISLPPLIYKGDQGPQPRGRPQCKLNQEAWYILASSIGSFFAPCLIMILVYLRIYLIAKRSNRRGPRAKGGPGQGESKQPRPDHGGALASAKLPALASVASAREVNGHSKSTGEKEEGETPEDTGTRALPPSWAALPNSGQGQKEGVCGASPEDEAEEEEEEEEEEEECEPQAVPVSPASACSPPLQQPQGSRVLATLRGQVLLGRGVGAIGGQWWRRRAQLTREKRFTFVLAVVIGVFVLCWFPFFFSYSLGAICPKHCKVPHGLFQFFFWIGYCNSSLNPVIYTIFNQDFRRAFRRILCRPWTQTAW

[13] = target: T3, Alpha-2C adrenergic receptor (Homo sapiens) (UniProt P18825)
T3 sequence (whole entry): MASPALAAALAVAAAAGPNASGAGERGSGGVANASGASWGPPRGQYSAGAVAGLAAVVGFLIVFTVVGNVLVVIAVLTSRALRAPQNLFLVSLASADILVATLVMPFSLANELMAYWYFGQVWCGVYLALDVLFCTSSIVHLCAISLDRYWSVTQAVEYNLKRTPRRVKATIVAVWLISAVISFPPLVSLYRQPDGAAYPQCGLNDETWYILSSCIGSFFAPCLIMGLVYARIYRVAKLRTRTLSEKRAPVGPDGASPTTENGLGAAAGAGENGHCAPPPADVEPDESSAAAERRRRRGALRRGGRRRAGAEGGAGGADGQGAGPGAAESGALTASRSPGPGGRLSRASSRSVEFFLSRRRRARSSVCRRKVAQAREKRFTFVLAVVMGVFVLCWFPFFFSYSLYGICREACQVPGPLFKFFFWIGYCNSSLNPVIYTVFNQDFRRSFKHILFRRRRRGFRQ

[14] = target: T4, Muscarinic acetylcholine receptor M1 (Homo sapiens) (UniProt P11229)
T4 sequence (whole entry): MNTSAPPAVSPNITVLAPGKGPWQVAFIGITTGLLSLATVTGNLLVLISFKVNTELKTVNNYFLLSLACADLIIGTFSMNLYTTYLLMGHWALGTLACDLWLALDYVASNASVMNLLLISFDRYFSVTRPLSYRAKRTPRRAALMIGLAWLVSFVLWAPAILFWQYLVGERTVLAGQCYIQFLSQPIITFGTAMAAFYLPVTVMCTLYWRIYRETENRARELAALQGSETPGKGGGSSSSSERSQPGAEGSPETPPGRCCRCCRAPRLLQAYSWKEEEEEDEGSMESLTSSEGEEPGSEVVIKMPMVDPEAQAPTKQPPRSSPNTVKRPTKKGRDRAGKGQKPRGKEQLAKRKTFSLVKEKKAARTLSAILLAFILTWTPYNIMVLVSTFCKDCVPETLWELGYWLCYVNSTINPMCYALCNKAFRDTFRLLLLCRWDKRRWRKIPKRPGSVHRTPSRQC

[15] = organism: Rattus norvegicus
[16] = target: Sigma intracellular receptor 2 (Homo sapiens) (UniProt Q5BJF2)
Chain of Sigma intracellular receptor 2 (Homo sapiens) (Q5BJF2 whole entry): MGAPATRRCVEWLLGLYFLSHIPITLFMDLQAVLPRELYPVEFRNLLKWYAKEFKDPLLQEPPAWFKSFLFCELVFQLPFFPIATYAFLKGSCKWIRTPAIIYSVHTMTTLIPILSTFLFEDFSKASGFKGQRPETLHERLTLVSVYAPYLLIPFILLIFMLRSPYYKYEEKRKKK

Measured: inhibition

Cc1cc(OCCC(C)(C)O)cc(C)c1-c1ccc(F)c2c1CC[C@H]2Oc1ccc2c(c1)OC[C@H]2CC(=O)O
inactive: [1] 22.6% | [2] 18.6% | [3] -0.3% | [4] 5.48% | [5] -6.42% | [6] 15.1% | [7] 4.25% | [8] 9.38% | [9] 26.8% | [10] 24.4% | [11] 8.54% | [12] -1.99% | [13] 14.5% | [14] -3.94% | [15] 40.4% | [16] 13.1%

COCCCS(=O)(=O)c1cc(C)c(-c2ccc(F)c3c2CC[C@H]3Oc2ccc3c(c2)OC[C@H]3CC(=O)O)c(C)c1
inactive: [1] 31.1% | [2] 5.08% | [3] -2.26% | [4] 9.98% | [5] 20.4% | [6] 13.6% | [7] -1.62% | [8] 11.1% | [9] 1.43% | [10] 20.8% | [11] 15% | [12] 3.95% | [13] 5.58% | [14] 7.17% | [15] 36.1% | [16] -0.91%
